{"source": "patent US6825231B2", "about": "“Substituted norbornylamino derivatives, processes for their preparation, their use as medicaments or diagnostics, and a medicament comprising them” (Aventis Pharma Deutschland GmbH, priority 1999, dated 2004)", "origin": "cited, not measured here", "target": "NHE3 (Oryctolagus cuniculus, UniProt P26432)", "sequence (P26432 30-832)": "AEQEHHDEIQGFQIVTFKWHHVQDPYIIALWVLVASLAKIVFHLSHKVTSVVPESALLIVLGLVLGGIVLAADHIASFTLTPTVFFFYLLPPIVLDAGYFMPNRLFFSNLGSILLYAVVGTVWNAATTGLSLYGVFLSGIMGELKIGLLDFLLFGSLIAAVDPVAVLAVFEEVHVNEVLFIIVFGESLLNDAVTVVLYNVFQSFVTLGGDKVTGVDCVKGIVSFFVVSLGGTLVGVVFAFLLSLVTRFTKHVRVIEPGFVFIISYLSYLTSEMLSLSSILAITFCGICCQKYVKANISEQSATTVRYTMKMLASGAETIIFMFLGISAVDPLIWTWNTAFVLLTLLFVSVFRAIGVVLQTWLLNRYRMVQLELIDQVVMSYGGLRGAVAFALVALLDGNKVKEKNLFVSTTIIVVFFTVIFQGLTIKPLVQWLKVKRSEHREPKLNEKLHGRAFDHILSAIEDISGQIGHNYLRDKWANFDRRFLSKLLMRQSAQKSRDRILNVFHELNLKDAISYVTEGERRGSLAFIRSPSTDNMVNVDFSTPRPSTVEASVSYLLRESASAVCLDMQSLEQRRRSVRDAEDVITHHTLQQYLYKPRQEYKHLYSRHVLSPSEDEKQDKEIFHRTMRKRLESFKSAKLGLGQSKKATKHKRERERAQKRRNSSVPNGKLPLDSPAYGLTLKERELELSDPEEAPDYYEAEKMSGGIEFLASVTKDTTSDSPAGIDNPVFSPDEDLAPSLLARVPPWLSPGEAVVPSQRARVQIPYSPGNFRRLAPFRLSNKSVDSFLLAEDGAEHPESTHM", "details": "literature: Donowitz et al. Am. J. Physiol. 276: C136-C144; cited from earlier work", "data": [{"smiles": "CC(C)[C@@H](CC[C@@H](C)[C@H]1CC[C@H]2[C@@H]3[C@H](O)C[C@H]4C[C@@H](NCCCNCCCCN)CC[C@]4(C)[C@H]3CC[C@]12C)OS(=O)(=O)O", "note": "[squalamine]", "values": [{"measurement": "delay of NHE3 inhibitory activity", "value": "activity seen after one hour"}]}]}
